{"source": "patent US20060089499A1", "about": "“Pyrazolopyrimidines and the use thereof for controlling harmful organisms” (priority 2002, published 2006)", "data": [{"tested_on": "Venturia inaequalis", "assay": "Venturia test (apple)/protective", "assay_type": "in vivo", "details": "topical, 240 h, protective, application rate 100 g/ha, evaluation 10 days after inoculation, read-out: Efficacy in %", "description": "Venturia Test (Apple)/Protective [table] To produce a suitable preparation of active compound, 1 part by weight of active compound is mixed with the stated amounts of solvent and emulsifier, and the concentrate is diluted with water to the desired concentration. To test for protective activity, young plants are sprayed with the preparation of active compound at the stated application rate. After the spray coating has dried on, the plants are inoculated with an aqueous conidia suspension of the apple scab pathogen Venturia inaequalis and then remain in an incubation cabin at about 20° C. and 100% relative atmospheric humidity for 1 day. The plants are then placed in a greenhouse at about 21° C. and a relative atmospheric humidity of about 90%.", "units": {"pest or weed control at 100 g/ha": "%"}, "values": [{"smiles": "CC(C)[C@@H](C)Nc1c(-c2c(F)cc(F)cc2F)c(Cl)nc2c(C#N)cnn12", "note": "[drawing 98]", "pest or weed control at 100 g/ha": 100}, {"smiles": "CCC(C)Nc1c(-c2c(F)cc(F)cc2F)c(Cl)nc2c(C#N)cnn12", "note": "(centres unmarked) [drawing 99]", "pest or weed control at 100 g/ha": 100}, {"smiles": "Fc1cc(F)c(-c2c(Cl)nc3c(Cl)cnn3c2N2CCC(F)(F)CC2)c(F)c1", "note": "[drawing 97]", "pest or weed control at 100 g/ha": 100}, {"smiles": "CC1CCN(c2c(-c3ccccc3Cl)c(Cl)nc3c(C#N)cnn23)CC1", "note": "[drawing 106]", "pest or weed control at 100 g/ha": 99}, {"smiles": "C[C@H](Nc1c(-c2c(F)cccc2Cl)c(Cl)nc2c(C#N)cnn12)C(F)(F)F", "note": "[drawing 110]", "pest or weed control at 100 g/ha": 100}, {"smiles": "C[C@H](Nc1c(-c2c(F)cc(F)cc2F)c(Cl)nc2c(C#N)cnn12)C(F)(F)F", "note": "[drawing 95]", "pest or weed control at 100 g/ha": 100}, {"smiles": "C=C(C)CN(CC)c1c(-c2c(F)cc(F)cc2F)c(Cl)nc2c(C#N)cnn12", "note": "[drawing 94]", "pest or weed control at 100 g/ha": 100}, {"smiles": "N#Cc1cnn2c(NCC3CC3)c(-c3c(F)cccc3Cl)c(Cl)nc12", "note": "[drawing 93]", "pest or weed control at 100 g/ha": 100}, {"smiles": "C=C(C)CN(CC)c1c(-c2c(F)cccc2Cl)c(Cl)nc2c(C#N)cnn12", "note": "[drawing 109]", "pest or weed control at 100 g/ha": 100}, {"smiles": "C[C@H](Nc1c(-c2c(F)cc(F)cc2F)c(Cl)nc2c(Cl)cnn12)C(F)(F)F", "note": "[drawing 96]", "pest or weed control at 100 g/ha": 98}, {"smiles": "CC(C)CN(C)c1c(-c2c(F)cc(F)cc2F)c(Cl)nc2c(C#N)cnn12", "note": "[drawing 101]", "pest or weed control at 100 g/ha": 100}, {"smiles": "N#Cc1cnn2c(N3CCC(F)CC3)c(-c3c(F)cccc3Cl)c(Cl)nc12", "note": "[drawing 107]", "pest or weed control at 100 g/ha": 98}, {"smiles": "C=C(C)CN(C)c1c(-c2c(F)cc(F)cc2F)c(Cl)nc2c(C#N)cnn12", "note": "[drawing 102]", "pest or weed control at 100 g/ha": 100}, {"smiles": "CC(C)CN(C)c1c(-c2c(F)cccc2Cl)c(Cl)nc2c(C#N)cnn12", "note": "[drawing 108]", "pest or weed control at 100 g/ha": 99}, {"smiles": "CC1CCN(c2c(-c3c(F)cccc3Cl)c(Cl)nc3c(C#N)cnn23)CC1", "note": "[drawing 92]", "pest or weed control at 100 g/ha": 97}, {"smiles": "CC(Nc1c(-c2ccc(F)cc2Cl)c(Cl)nc2c(C#N)cnn12)C(F)(F)F", "note": "(centres unmarked) [drawing 103]", "pest or weed control at 100 g/ha": 93}, {"smiles": "CC(C)CN(C)c1c(-c2ccccc2Cl)c(Cl)nc2c(C#N)cnn12", "note": "[drawing 105]", "pest or weed control at 100 g/ha": 100}, {"smiles": "CC(C)Nc1c(-c2c(F)cc(F)cc2F)c(Cl)nc2c(C#N)cnn12", "note": "[drawing 100]", "pest or weed control at 100 g/ha": 98}, {"smiles": "C[C@H](Nc1c(-c2ccc(F)cc2Cl)c(Cl)nc2c(C#N)cnn12)C(F)(F)F", "note": "[drawing 104]", "pest or weed control at 100 g/ha": 100}]}, {"tested_on": "Botrytis cinerea", "assay": "Botrytis test (bean)/protective", "assay_type": "in vivo", "details": "topical, 48 h, protective, application rate 500 g/ha, evaluation 2 days after inoculation, read-out: Efficacy in %", "description": "Botrytis Test (Bean)/Protective\nTo produce a suitable preparation of active compound, 1 part by weight of active compound is mixed with the stated amounts of solvent and emulsifier, and the concentrate is diluted with water to the desired concentration. To test for protective activity, young plants are sprayed with the preparation of active compound at the stated application rate. After the spray coating has dried on, 2 small pieces of agar colonized by Botrytis cinerea are placed onto each leaf. The inoculated plants are placed in a dark chamber at about 20° C. and 100% relative atmospheric humidity.\n2 days after the inoculation, the size of the infected areas on the leaves is evaluated. 0% means an efficacy which corresponds to that of the control, whereas an efficacy of 100% means that no infection is observed.", "units": {"pest or weed control at 500 g/ha": "%"}, "values": [{"smiles": "C[C@H](Nc1c(-c2c(F)cc(F)cc2F)c(Cl)nc2c(Cl)cnn12)C(F)(F)F", "note": "[drawing 116]", "pest or weed control at 500 g/ha": 100}, {"smiles": "CC(C)CN(C)c1c(-c2ccccc2Cl)c(Cl)nc2c(C#N)cnn12", "note": "[drawing 125]", "pest or weed control at 500 g/ha": 100}]}, {"tested_on": "Fusarium nivale (var. majus)", "assay": "Fusarium nivale (var. majus) test (wheat)/protective", "assay_type": "in vivo", "details": "protective, application rate 500 g/ha, evaluation 6 days after inoculation", "description": "Fusarium nivale (var. majus) Test (Wheat)/Protective [table] To produce a suitable preparation of active compound, 1 part by weight of active compound is mixed with the stated amounts of solvent and emulsifier, and the concentrate is diluted with water to the desired concentration. To test for protective activity, young plants are sprayed with the preparation of active compound at the stated application rate. After the spray coating has dried on, the plants are sprayed with a conidia suspension of Fusarium nivale (var. majus). The plants are placed in a greenhouse under transparent incubation hoods at a temperature of about 15° C. and a relative atmospheric humidity of about 100%.", "units": {"Efficacy in %": "%"}, "values": [{"smiles": "C[C@H](Nc1c(-c2c(F)cc(F)cc2F)c(Cl)nc2c(Cl)cnn12)C(F)(F)F", "note": "[drawing 139]", "Efficacy in %": 80}, {"smiles": "CC(Nc1c(-c2ccc(F)cc2Cl)c(Cl)nc2c(C#N)cnn12)C(F)(F)F", "note": "(centres unmarked) [drawing 137]", "Efficacy in %": 88}, {"smiles": "C=C(C)CN(CC)c1c(-c2c(F)cc(F)cc2F)c(Cl)nc2c(C#N)cnn12", "note": "[drawing 138]", "Efficacy in %": 100}]}, {"tested_on": "Alternaria solani", "assay": "Alternaria test (tomato)/protective", "assay_type": "in vivo", "details": "protective, application rate 750 g/ha, evaluation 7 days after inoculation", "description": "(Tomato)/Protective [table] To produce a suitable preparation of active compound, 1 part by weight of active compound is mixed with the stated amounts of solvent and emulsifier, and the concentrate is diluted with water to the desired concentration. To test for protective activity, young tomato plants are sprayed with the preparation of active compound at the stated application rate. 1 day after the treatment, the plants are inoculated with a spore suspension of Alternaria solani and then remain at 100% rel. humidity and 20° C. for 24 h. The plants then remain at 96% rel. atmospheric humidity and a temperature of 20° C.", "units": {"Efficacy in %": "%"}, "values": [{"smiles": "CC(C)CNc1c(-c2ccc(F)cc2F)c(Cl)nc2c(C#N)cnn12", "note": "[drawing 133]", "Efficacy in %": 95}, {"smiles": "C[C@H](Nc1c(-c2c(F)cc(F)cc2F)c(Cl)nc2c(C#N)cnn12)C(F)(F)F", "note": "[drawing 135]", "Efficacy in %": 95}, {"smiles": "C=C(C)CN(CC)c1c(-c2c(F)cc(F)cc2F)c(Cl)nc2c(C#N)cnn12", "note": "[drawing 134]", "Efficacy in %": 95}, {"smiles": "N#Cc1cnn2c(N3CCOCC3)c(-c3c(F)cccc3Cl)c(Cl)nc12", "note": "[drawing 131]", "Efficacy in %": 95}, {"smiles": "N#Cc1cnn2c(N3CCCCC3)c(-c3c(F)cccc3Cl)c(Cl)nc12", "note": "[drawing 132]", "Efficacy in %": 95}, {"smiles": "N#Cc1cnn2c(N3CCC(F)(F)CC3)c(-c3c(F)cc(F)cc3F)c(Cl)nc12", "note": "[drawing 136]", "Efficacy in %": 90}]}, {"tested_on": "Pyricularia oryzae", "assay": "not given", "assay_type": "in vivo", "details": "rice, protective, application rate 500 g/ha, evaluation 6 days after inoculation", "units": {"Efficacy in %": "%"}, "values": [{"smiles": "C[C@H](Nc1c(-c2c(F)cc(F)cc2F)c(Cl)nc2c(C#N)cnn12)C(F)(F)F", "note": "[drawing 141]", "Efficacy in %": 88}, {"smiles": "C[C@H](Nc1c(-c2ccccc2F)c(Cl)nc2c(C#N)cnn12)C(F)(F)F", "note": "[drawing 143]", "Efficacy in %": 75}, {"smiles": "N#Cc1cnn2c(NCC3CC3)c(-c3c(F)cc(F)cc3F)c(Cl)nc12", "note": "[drawing 142]", "Efficacy in %": 86}, {"smiles": "C[C@H](Nc1c(-c2c(F)cc(F)cc2F)c(Cl)nc2c(Cl)cnn12)C(F)(F)F", "note": "[drawing 140]", "Efficacy in %": 88}]}, {"tested_on": "diamondback moth (Plutella xyostella)", "assay": "Plutella test (plant-damaging insects)", "assay_type": "in vivo", "details": "1000 ppm active compound on synthetic feed, eggs/larvae", "description": "Plutella Test [table] To produce a suitable preparation of active compound, 1 part by weight of active compound is mixed with the stated amount of solvent, and the concentrate is diluted with methanol to the desired concentrations. A stated amount of preparation of active compound of the desired concentration is pipetted onto a standardized amount of synthetic feed. After the methanol has evaporated, about 200-300 eggs of the diamondback moth (Plutella xyostella) are placed onto the feed. After the desired period of time, the kill of the eggs or larvae in % is determined. 100% means that all animals have been killed; 0% means that none of the animals has been killed.", "units": {"Kill rate in % after 7^d": "%"}, "values": [{"smiles": "CC(Nc1c(-c2ccc(F)cc2Cl)c(Cl)nc2c(C#N)cnn12)C(F)(F)F", "note": "(centres unmarked) [drawing 144]", "Kill rate in % after 7^d": 100}]}]}
